{
  "source": "patent US9943529B2",
  "about": "“Methods for reducing cellular proliferation and treating certain diseases” (BRIGHAM YOUNG UNIVERSITY, priority 2013, dated 2018)",
  "conditions_in_all_cases": "10 μM, 48 hours",
  "key": {"CCRF-CEM": {"system": "CCRF-CEM", "experiment": "NCI screen antiproliferative activity, sulforhodamine B, Leukemia panel", "assay_type": "cell-based, human", "protocol": "(§1) The antiproliferative activity of compounds were determined in the National Cancer Institute (NCI) screen (Drug. Dev. Res. 1995, 34, 91-109; J. Natl. Cancer Inst. 1990, 82, 1107-1112; Drug Dev. Res. 1995, 34, 91-109). For certain compounds, cells of approximately 60 different human cancer cell lines were incubated for 48 hours with five 10-fold dilutions of the tested compounds starting from 100 μM and then treated with sulforhodamine B dye. For other compounds, cells of approximately 60 different human cancer cell lines were incubated for 48 hours with a concentration of 10 μM test compound. The ratios of recorded optical densities relative to that of the control were plotted as a function of the common logarithm of the tested compound concentrations or growth percent (for single concentration tests). The interpolation between the points located above and below the 50% percentage growth provided 50% growth inhibition (GI50) values. Total growth inhibition (TGI) and 50% lethal concentrations (LC50) were also calculated using reported methods. A “-” means not tested and/or not-determined."}, "HL-60(TB)": {"system": "HL-60(TB)", "experiment": "NCI screen antiproliferative activity, sulforhodamine B, Leukemia panel", "assay_type": "cell-based, human", "protocol": "as §1"}, "K-562": {"system": "K-562", "experiment": "NCI screen antiproliferative activity, sulforhodamine B, Leukemia panel", "assay_type": "cell-based, human"}, "MOLT-4": {"system": "MOLT-4", "experiment": "NCI screen antiproliferative activity, sulforhodamine B, Leukemia panel", "assay_type": "cell-based, human"}, "RPMI-8226": {"system": "RPMI-8226", "experiment": "NCI screen antiproliferative activity, sulforhodamine B, Leukemia panel", "assay_type": "cell-based, human"}, "SR": {"system": "SR", "experiment": "NCI screen antiproliferative activity, sulforhodamine B, Leukemia panel", "assay_type": "cell-based, human"}, "COLO 205": {"system": "COLO 205", "experiment": "NCI screen antiproliferative activity, sulforhodamine B, Colon Cancer panel", "assay_type": "cell-based, human"}, "KM12": {"system": "KM12", "experiment": "NCI screen antiproliferative activity, sulforhodamine B, Colon Cancer panel", "assay_type": "cell-based, human"}, "SW-620": {"system": "SW-620", "experiment": "NCI screen antiproliferative activity, sulforhodamine B, Colon Cancer panel", "assay_type": "cell-based, human"}, "LOX IMVI": {"system": "LOX IMVI", "experiment": "NCI screen antiproliferative activity, sulforhodamine B, Melanoma panel", "assay_type": "cell-based, human"}, "MALME-3M": {"system": "MALME-3M", "experiment": "NCI screen antiproliferative activity, sulforhodamine B, Melanoma panel", "assay_type": "cell-based, human"}, "SK-MEL-5": {"system": "SK-MEL-5", "experiment": "NCI screen antiproliferative activity, sulforhodamine B, Melanoma panel", "assay_type": "cell-based, human"}, "NCI/ADR-RES": {"system": "NCI/ADR-RES", "experiment": "NCI screen antiproliferative activity, sulforhodamine B, Ovarian Cancer panel", "assay_type": "cell-based, human", "protocol": "as §1"}, "A498": {"system": "A498", "experiment": "NCI screen antiproliferative activity, sulforhodamine B, Renal Cancer panel", "assay_type": "cell-based, human", "protocol": "as §1"}, "HS 578T": {"system": "HS 578T", "experiment": "NCI screen antiproliferative activity, sulforhodamine B, Breast Cancer panel", "assay_type": "cell-based, human"}, "MDA-MB-468": {"system": "MDA-MB-468", "experiment": "NCI screen antiproliferative activity, sulforhodamine B, Breast Cancer panel", "assay_type": "cell-based, human", "protocol": "as §1"}, "A549/ATCC": {"system": "A549/ATCC"}, "HOP-62": {"system": "HOP-62"}, "HOP-92": {"system": "HOP-92"}, "NCI-H226": {"system": "NCI-H226"}, "NCI-H23": {"system": "NCI-H23"}, "NCI-H322M": {"system": "NCI-H322M"}, "NCI-H460": {"system": "NCI-H460"}, "NCI-H522": {"system": "NCI-H522"}, "HCC-2998": {"system": "HCC-2998"}, "HCT-116": {"system": "HCT-116"}, "HCT-15": {"system": "HCT-15"}, "HT29": {"system": "HT29"}, "SF-268": {"system": "SF-268"}, "SF-539": {"system": "SF-539"}, "SNB-19": {"system": "SNB-19"}, "SNB-75": {"system": "SNB-75"}, "M14": {"system": "M14"}, "SK-MEL-2": {"system": "SK-MEL-2"}, "SK-MEL-28": {"system": "SK-MEL-28"}, "UACC-62": {"system": "UACC-62"}, "IGROV1": {"system": "IGROV1"}, "OVCAR-3": {"system": "OVCAR-3"}, "OVCAR-4": {"system": "OVCAR-4"}, "OVCAR-5": {"system": "OVCAR-5"}, "OVCAR-8": {"system": "OVCAR-8"}, "SK-OV-3": {"system": "SK-OV-3"}, "786-0": {"system": "786-0"}, "ACHN": {"system": "ACHN"}, "CAKI-1": {"system": "CAKI-1"}, "RXF 393": {"system": "RXF 393"}, "SN12C": {"system": "SN12C"}, "TK-10": {"system": "TK-10"}, "UO-31": {"system": "UO-31"}, "PC-3": {"system": "PC-3"}, "DU-145": {"system": "DU-145"}, "MCF7": {"system": "MCF7"}, "MDA-MB-231/ATCC": {"system": "MDA-MB-231/ATCC"}, "MDA-MB-435": {"system": "MDA-MB-435"}, "BT-549": {"system": "BT-549"}, "T-47D": {"system": "T-47D"}},
  "data": [
    {"smiles": "CCCCCCCCOC(=O)CC[C@@H](C)[C@H]1CC[C@H]2[C@@H]3[C@H](OC(=O)CCN)C[C@@H]4C[C@H](OC(=O)CCN)CC[C@]4(C)[C@H]3C[C@H](OC(=O)CCN)[C@]12C", "note": "[CSA-44]", "values": [
      {"measurement": "Growth Percent", "setting": "CCRF-CEM", "value": "−37.46", "unit": "%"},
      {"measurement": "Growth Percent", "setting": "HL-60(TB)", "value": 43.69, "unit": "%"},
      {"measurement": "Growth Percent", "setting": "K-562", "value": "−74.53", "unit": "%"},
      {"measurement": "Growth Percent", "setting": "MOLT-4", "value": 26.15, "unit": "%"},
      {"measurement": "Growth Percent", "setting": "RPMI-8226", "value": 77.75, "unit": "%"},
      {"measurement": "Growth Percent", "setting": "SR", "value": "−12.92", "unit": "%"},
      {"measurement": "Growth Percent", "setting": "COLO 205", "value": 66.35, "unit": "%"},
      {"measurement": "Growth Percent", "setting": "KM12", "value": 77.75, "unit": "%"},
      {"measurement": "Growth Percent", "setting": "SW-620", "value": 20.01, "unit": "%"},
      {"measurement": "Growth Percent", "setting": "LOX IMVI", "value": 63.17, "unit": "%"},
      {"measurement": "Growth Percent", "setting": "MALME-3M", "value": 67.83, "unit": "%"},
      {"measurement": "Growth Percent", "setting": "SK-MEL-5", "value": 96.98, "unit": "%"},
      {"measurement": "Growth Percent", "setting": "NCI/ADR-RES", "value": 100.83, "unit": "%"},
      {"measurement": "Growth Percent", "setting": "A498", "value": 130.78, "unit": "%"},
      {"measurement": "Growth Percent", "setting": "HS 578T", "value": 79.51, "unit": "%"},
      {"measurement": "Growth Percent", "setting": "MDA-MB-468", "value": 3.95, "unit": "%"},
      {"measurement": "Growth Percent", "setting": "A549/ATCC", "value": 81.31, "unit": "%"},
      {"measurement": "Growth Percent", "setting": "HOP-62", "value": 37.66, "unit": "%"},
      {"measurement": "Growth Percent", "setting": "HOP-92", "value": 40.75, "unit": "%"},
      {"measurement": "Growth Percent", "setting": "NCI-H226", "value": 89.76, "unit": "%"},
      {"measurement": "Growth Percent", "setting": "NCI-H23", "value": 90.31, "unit": "%"},
      {"measurement": "Growth Percent", "setting": "NCI-H322M", "value": 71.42, "unit": "%"},
      {"measurement": "Growth Percent", "setting": "NCI-H460", "value": 73.70, "unit": "%"},
      {"measurement": "Growth Percent", "setting": "NCI-H522", "value": 10.80, "unit": "%"},
      {"measurement": "Growth Percent", "setting": "HCC-2998", "value": 84.20, "unit": "%"},
      {"measurement": "Growth Percent", "setting": "HCT-116", "value": 49.30, "unit": "%"},
      {"measurement": "Growth Percent", "setting": "HCT-15", "value": 101.79, "unit": "%"},
      {"measurement": "Growth Percent", "setting": "HT29", "value": 39.62, "unit": "%"},
      {"measurement": "Growth Percent", "setting": "SF-268", "value": 69.72, "unit": "%"},
      {"measurement": "Growth Percent", "setting": "SF-539", "value": 56.26, "unit": "%"},
      {"measurement": "Growth Percent", "setting": "SNB-19", "value": 115.74, "unit": "%"},
      {"measurement": "Growth Percent", "setting": "SNB-75", "value": 63.88, "unit": "%"},
      {"measurement": "Growth Percent", "setting": "M14", "value": 84.43, "unit": "%"},
      {"measurement": "Growth Percent", "setting": "SK-MEL-2", "value": 126.21, "unit": "%"},
      {"measurement": "Growth Percent", "setting": "SK-MEL-28", "value": 58.43, "unit": "%"},
      {"measurement": "Growth Percent", "setting": "UACC-62", "value": 103.61, "unit": "%"},
      {"measurement": "Growth Percent", "setting": "IGROV1", "value": 77.22, "unit": "%"},
      {"measurement": "Growth Percent", "setting": "OVCAR-3", "value": 107.53, "unit": "%"},
      {"measurement": "Growth Percent", "setting": "OVCAR-4", "value": 75.66, "unit": "%"},
      {"measurement": "Growth Percent", "setting": "OVCAR-5", "value": 92.12, "unit": "%"},
      {"measurement": "Growth Percent", "setting": "OVCAR-8", "value": 69.53, "unit": "%"},
      {"measurement": "Growth Percent", "setting": "SK-OV-3", "value": 90.91, "unit": "%"},
      {"measurement": "Growth Percent", "setting": "786-0", "value": 99.05, "unit": "%"},
      {"measurement": "Growth Percent", "setting": "ACHN", "value": 96.19, "unit": "%"},
      {"measurement": "Growth Percent", "setting": "CAKI-1", "value": 107.94, "unit": "%"},
      {"measurement": "Growth Percent", "setting": "RXF 393", "value": 108.72, "unit": "%"},
      {"measurement": "Growth Percent", "setting": "SN12C", "value": 77.59, "unit": "%"},
      {"measurement": "Growth Percent", "setting": "TK-10", "value": 135.94, "unit": "%"},
      {"measurement": "Growth Percent", "setting": "UO-31", "value": 104.69, "unit": "%"},
      {"measurement": "Growth Percent", "setting": "PC-3", "value": 87.30, "unit": "%"},
      {"measurement": "Growth Percent", "setting": "DU-145", "value": 74.35, "unit": "%"},
      {"measurement": "Growth Percent", "setting": "MCF7", "value": 10.84, "unit": "%"},
      {"measurement": "Growth Percent", "setting": "MDA-MB-231/ATCC", "value": 69.26, "unit": "%"},
      {"measurement": "Growth Percent", "setting": "MDA-MB-435", "value": 74.13, "unit": "%"},
      {"measurement": "Growth Percent", "setting": "BT-549", "value": 124.30, "unit": "%"},
      {"measurement": "Growth Percent", "setting": "T-47D", "value": 88.83, "unit": "%"}
    ]}
  ]
}
